{"source": "paper PMC10385371", "about": "“Discovery of Novel Coumarin-Schiff Base Hybrids as Potential Acetylcholinesterase Inhibitors: Design, Synthesis, Enzyme Inhibition, and Computational Studies” (Pharmaceuticals, 2023)", "key": {"[1]": {"target": "T1, Acetylcholinesterase (Type VI-S, from Electrophorus electricus) (Electrophorus electricus, UniProt O42275)", "T1 construct": "purchased Sigma Aldrich Type VI-S (catalogue number not given)", "T1 sequence (O42275 24-633)": "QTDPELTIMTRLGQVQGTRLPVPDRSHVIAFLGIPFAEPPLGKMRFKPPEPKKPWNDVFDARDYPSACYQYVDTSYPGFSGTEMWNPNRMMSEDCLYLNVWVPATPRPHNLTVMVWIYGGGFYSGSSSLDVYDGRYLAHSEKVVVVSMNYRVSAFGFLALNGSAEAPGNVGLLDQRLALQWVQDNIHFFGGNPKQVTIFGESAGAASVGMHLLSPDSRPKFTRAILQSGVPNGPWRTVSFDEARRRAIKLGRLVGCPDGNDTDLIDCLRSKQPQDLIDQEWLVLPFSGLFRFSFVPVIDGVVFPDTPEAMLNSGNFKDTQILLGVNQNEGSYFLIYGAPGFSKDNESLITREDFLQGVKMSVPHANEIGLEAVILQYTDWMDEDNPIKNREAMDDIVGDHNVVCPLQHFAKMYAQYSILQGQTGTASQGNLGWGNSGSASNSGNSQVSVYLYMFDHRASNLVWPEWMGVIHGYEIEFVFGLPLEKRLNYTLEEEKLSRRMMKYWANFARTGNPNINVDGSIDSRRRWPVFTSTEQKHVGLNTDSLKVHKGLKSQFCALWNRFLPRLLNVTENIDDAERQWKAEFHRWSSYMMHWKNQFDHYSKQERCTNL", "assay": "biochemical", "format": "biochemical", "details": "for IC50: read-out: IC50 against AChE; for potency relative to galantamine (positive control): ratio of AChE IC50 values", "protocol": "The procedure described by Ellman, slightly modified, was performed to assess the AChE inhibitory activity of synthesized compounds, according to reported procedures in the literature. Detailed protocol is provided in supplementary materials. […]\nIn vitro inhibition study on AChE\nThe assay for AChE inhibitory activity was done based on a modified protocol. Acetylcholinesterase (Type VI-S, from Electrophorus electricus), 5,5′-dithiobis-2-nitrobenzoic acid (Ellman's reagent, DTNB) and acetylthiocholine chloride (ATCI) were purchased from Sigma Aldrich. Enzyme solutions were prepared to give 0.28 units/mL aliquots. Stock solutions were prepared by dissolving 1 mg of tested compounds in 1 mL of DMSO and diluted to a final concentration of 1000, 800, 600, 400, 200, 100, and 50 µg/mL. The assay buffer solution A (pH = 8.0) was prepared by taking 93.2 mL of solution (6 g of sodium dihydrogen phosphate was dissolved in 500 mL of deionized water) and mixed with 6.8 mL of solution (7 g of sodium hydrogen phosphate was dissolved in 500 mL of deionized water) and adjusted. 57.7 mL of sodium dihydrogen phosphate and 42.3 mL of sodium hydrogen phosphate were mixed and adjusted to prepare the buffer B (pH = 7.0). […]\nfresh solutions of 0.01 M DTNB (0.396 g of DTNB and 15 mg NaHCO3 were dissolved in 100 mL of the buffer B) in a dark place, and 0.075 M ATCI (0.2048 g of ATCI was dissolved in 10 mL of deionized water), were prepared. In 96-well plates, 20 μL of the test compounds, 10 μL of DTNB, 15 μL of the enzyme (AChE) and 140 μL of the buffer solution A, were added in dark conditions and incubated for 15 min, followed by the addition of ATCI (10 μL) and incubated again for the same period. The activity was measured by reading the absorbance of the solution at 412 nm. Blanks containing all the components except the enzyme were carried out.\nIC50 values were calculated as the concentration of a compound that produces 50% enzyme activity inhibition using the GraphPad Prism 8 programme package. Results are expressed as the mean ± SD of at least three different experiments performed in triplicate.\nPercentage inhibition was calculated by this formula:\n% ሺInhibitionሻ = B−AB X 100\n• A= absorbance of the enzyme with the test sample;\n• B = absorbance of the enzyme without test sample.\n• Each experiment was repeated thrice."}, "AChE": {"test_system": "AChE", "details": "read-out: IC50 against AChE; cited from earlier work"}, "[2]": {"target": "human monoamine oxidase hMAO-A", "details": "cited from earlier work"}, "[3]": {"target": "human monoamine oxidase hMAO-B", "details": "cited from earlier work"}}, "note": "Several values for one entry are separate records, joined by “and”; a condition that tells them apart may be missing. Equal entries are not always repeated.", "data": [{"smiles": "COc1ccc2c(COc3ccc(/C=N/c4ccccc4)cc3)cc(=O)oc2c1", "note": "[13a, (E)-7-Methoxy-4-((4-((phenylimino)methyl)phenoxy)methyl)-2H-chromen-2-one]", "values": [{"measurement": "IC50", "setting": "[1]", "value": "440 ± 16", "unit": "µM"}]}, {"smiles": "COc1ccc(/N=C/c2ccc(OCc3cc(=O)oc4cc(OC)ccc34)cc2)cc1", "note": "[13b, (E)-7-Methoxy-4-((4-(((4-methoxyphenyl)imino)methyl)phenoxy)methyl)-2H-chromen-2-one]", "values": [{"measurement": "IC50", "setting": "[1]", "value": "466 ± 7", "unit": "µM"}]}, {"smiles": "COc1ccc2c(COc3ccc(/C=N/c4ccc(Cl)cc4)cc3)cc(=O)oc2c1", "note": "[13c, (E)-4-((4-(((4-Chlorophenyl)imino)methyl)phenoxy)methyl)-7-methoxy-2H-chromen-2-one]", "values": [{"measurement": "potency relative to galantamine (positive control)", "setting": "[1]", "value": "5 fold and ~ 5 fold"}, {"measurement": "IC50", "setting": "[1]", "value": "232 ± 11", "unit": "µM"}]}, {"smiles": "COc1ccc2c(COc3ccc(/C=N/c4ccc(Cl)cc4)cc3OC)cc(=O)oc2c1", "note": "[13d, (E)-4-((4-(((4-Chlorophenyl)imino)methyl)-2-methoxyphenoxy)methyl)-7-methoxy-2H-chromen-2-one]", "values": [{"measurement": "potency relative to galantamine (positive control)", "setting": "[1]", "value": "5 fold and ~ 5 fold"}]}, {"smiles": "COc1ccc2c(COc3ccc(/C=N/c4ccccc4)cc3OC)cc(=O)oc2c1", "note": "[13e, (E)-7-Methoxy-4-((2-methoxy-4-((phenylimino)methyl)phenoxy)methyl)-2H-chromen-2-one]", "values": [{"measurement": "IC50", "setting": "[1]", "value": "297 ± 6", "unit": "µM"}]}, {"smiles": "COc1ccc(/N=C/c2ccc(OCc3cc(=O)oc4cc(OC)ccc34)c(OC)c2)cc1", "note": "[13f, (E)-7-Methoxy-4-((2-methoxy-4-(((4-methoxyphenyl)imino)methyl)phenoxy)methyl)-2H-chromen-2-one]", "values": [{"measurement": "IC50", "setting": "[1]", "value": "365 ± 25", "unit": "µM"}]}, {"smiles": "COc1ccc(/N=C/c2cccc(OCc3cc(=O)oc4cc(OC)ccc34)c2)cc1", "note": "[13g, (E)-7-Methoxy-4-((3-(((4-methoxyphenyl)imino)methyl)phenoxy)methyl)-2H-chromen-2-one]", "values": [{"measurement": "IC50", "setting": "[1]", "value": "1090 ± 58", "unit": "µM"}]}, {"smiles": "COc1ccc2c(COc3cc(/C=N/c4ccc(Cl)cc4)ccc3OC)cc(=O)oc2c1", "note": "[13i, (E)-4-((5-(((4-Chlorophenyl)imino)methyl)-2-methoxyphenoxy)methyl)-7-methoxy-2H-chromen-2-one]", "values": [{"measurement": "IC50", "setting": "[1]", "value": "712 ± 44", "unit": "µM"}]}, {"smiles": "COc1ccc2c(COc3cccc(/C=N/c4ccc(Cl)cc4)c3)cc(=O)oc2c1", "note": "[13j, (E)-4-((3-(((4-Chlorophenyl)imino)methyl)phenoxy)methyl)-7-methoxy-2H-chromen-2-one]", "values": [{"measurement": "IC50", "setting": "[1]", "value": "651 ± 3", "unit": "µM"}]}, {"smiles": "Cc1c(O)ccc2c(CC(=O)NCCN3CCN(Cc4ccccc4)CC3)cc(=O)oc12", "note": "[compound 3]", "values": [{"measurement": "IC50", "setting": "AChE", "value": 40, "unit": "nM"}]}, {"smiles": "O=c1oc2ccccc2c(O)c1/N=C/c1ccc(O)c(O)c1O", "note": "[compound 4]", "values": [{"measurement": "IC50", "setting": "[2]", "value": 673, "unit": "nM"}, {"measurement": "IC50", "setting": "[3]", "value": 711, "unit": "nM"}]}, {"smiles": "O=C(N/N=C\\c1c2ccccc2cc2ccccc12)c1ccccc1O", "note": "[compound 5]", "values": [{"measurement": "IC50", "setting": "AChE", "value": 4120, "unit": "nM"}]}]}
